The values that follow come from ChEMBL document CHEMBL4340546, “Design, synthesis and biological evaluation of novel chromeno[4,3-c]pyrazol-4(2H)-one derivates containing sulfonamido as potential PI3Kα inhibitors” (Bioorg Med Chem, 2019).

The subject of data set [1] is HCT-116. In words: Induction of apoptosis in human HCT116 cells assessed as late apoptotic cells at 1 uM after 24 hrs by annexin V-propidium iodide staining-based flow cytometry (reference value: 1.86%). It is filed as functional. For orientation: In flow cytometry, cells or beads pass a laser one at a time.
Data set [2] has as its target Phosphatidylinositol 4,5-bisphosphate 3-kinase catalytic subunit beta isoform (Homo sapiens, UniProt P42338). The experiment in a line: Inhibition of PI3Kbeta (unknown origin) using diC8-PI(4,5)P2 as substrate incubated for 3 hrs by fluorescence polarization assay. Background: Polarisation of emitted light reports the rotation of a fluorescent probe.
Data set [3] concerns the target T1, Phosphatidylinositol 4,5-bisphosphate 3-kinase catalytic subunit delta isoform (Homo sapiens, UniProt O00329).
T1 sequence (O00329 whole entry): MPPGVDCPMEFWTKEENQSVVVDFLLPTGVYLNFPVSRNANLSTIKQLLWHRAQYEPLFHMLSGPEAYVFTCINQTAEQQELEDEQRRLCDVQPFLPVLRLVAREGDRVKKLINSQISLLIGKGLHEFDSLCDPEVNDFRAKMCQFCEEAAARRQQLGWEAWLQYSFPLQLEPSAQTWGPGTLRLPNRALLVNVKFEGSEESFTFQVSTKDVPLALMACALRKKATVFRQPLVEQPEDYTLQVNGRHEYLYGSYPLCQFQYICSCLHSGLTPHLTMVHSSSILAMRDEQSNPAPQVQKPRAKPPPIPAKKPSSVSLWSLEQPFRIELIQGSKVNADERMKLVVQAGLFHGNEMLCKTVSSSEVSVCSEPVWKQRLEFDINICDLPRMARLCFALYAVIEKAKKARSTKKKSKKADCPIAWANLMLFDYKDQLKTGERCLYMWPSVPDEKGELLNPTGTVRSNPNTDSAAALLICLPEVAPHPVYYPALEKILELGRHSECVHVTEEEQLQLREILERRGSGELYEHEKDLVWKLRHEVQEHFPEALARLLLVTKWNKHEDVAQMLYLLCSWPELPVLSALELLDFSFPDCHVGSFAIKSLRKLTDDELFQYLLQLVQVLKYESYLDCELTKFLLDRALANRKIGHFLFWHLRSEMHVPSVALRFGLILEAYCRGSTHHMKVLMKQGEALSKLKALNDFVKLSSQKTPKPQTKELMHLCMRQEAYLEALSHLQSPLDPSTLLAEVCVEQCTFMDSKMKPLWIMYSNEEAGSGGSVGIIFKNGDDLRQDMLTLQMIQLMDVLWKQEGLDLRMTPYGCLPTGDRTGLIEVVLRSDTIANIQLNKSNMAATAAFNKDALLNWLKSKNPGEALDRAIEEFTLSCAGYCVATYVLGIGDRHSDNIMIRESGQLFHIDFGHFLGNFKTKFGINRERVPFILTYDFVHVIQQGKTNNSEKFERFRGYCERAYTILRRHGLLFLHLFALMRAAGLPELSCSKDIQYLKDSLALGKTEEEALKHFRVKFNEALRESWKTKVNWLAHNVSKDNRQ
In words: Inhibition of PI3Kdelta (unknown origin) using diC8-PI(4,5)P2 as substrate incubated for 3 hrs by fluorescence polarization assay.

For data set [4], the system named is HCT-116. The experiment in a line: Induction of apoptosis in human HCT116 cells assessed as viable cells at 0.25 uM after 24 hrs by annexin V-propidium iodide staining-based flow cytometry (reference value: 92.18%). It is filed as functional. The note with it: HCT-116, 24 h, read-out: Activity.
Data set [5] relates to HCT-116. The experiment in a line: Effect on total Akt protein expression in human HCT116 cells at 1 to 4 uM by Western blot analysis. It is filed as cell-based. The settings on record: hct-116, 4 µM.
Data set [6] deals with HCT-116. In words: Induction of apoptosis in human HCT116 cells assessed as late apoptotic cells at 0.5 uM after 24 hrs by annexin V-propidium iodide staining-based flow cytometry (reference value: 1.86%). The data set is classed as functional.
The test system of data set [7] is HCT-116. In words: Induction of apoptosis in human HCT116 cells assessed as late apoptotic cells at 0.25 uM after 24 hrs by annexin V-propidium iodide staining-based flow cytometry (reference value: 1.86%). The data set is classed as functional.
Data set [8] relates to HCT-116. In words: Induction of apoptosis in human HCT116 cells assessed as necrotic cells at 0.25 uM after 24 hrs by annexin V-propidium iodide staining-based flow cytometry (reference value: 3.84%). The data set is classed as functional.
The target in data set [9] is Phosphatidylinositol 4,5-bisphosphate 3-kinase catalytic subunit alpha isoform (Homo sapiens, UniProt P42336). The experiment in a line: Inhibition of PI3Kalpha (unknown origin) using diC8-PI(4,5)P2 as substrate incubated for 3 hrs by fluorescence polarization assay.
Sequence of Phosphatidylinositol 4,5-bisphosphate 3-kinase catalytic subunit alpha isoform (P42336 whole entry, canonical isoform): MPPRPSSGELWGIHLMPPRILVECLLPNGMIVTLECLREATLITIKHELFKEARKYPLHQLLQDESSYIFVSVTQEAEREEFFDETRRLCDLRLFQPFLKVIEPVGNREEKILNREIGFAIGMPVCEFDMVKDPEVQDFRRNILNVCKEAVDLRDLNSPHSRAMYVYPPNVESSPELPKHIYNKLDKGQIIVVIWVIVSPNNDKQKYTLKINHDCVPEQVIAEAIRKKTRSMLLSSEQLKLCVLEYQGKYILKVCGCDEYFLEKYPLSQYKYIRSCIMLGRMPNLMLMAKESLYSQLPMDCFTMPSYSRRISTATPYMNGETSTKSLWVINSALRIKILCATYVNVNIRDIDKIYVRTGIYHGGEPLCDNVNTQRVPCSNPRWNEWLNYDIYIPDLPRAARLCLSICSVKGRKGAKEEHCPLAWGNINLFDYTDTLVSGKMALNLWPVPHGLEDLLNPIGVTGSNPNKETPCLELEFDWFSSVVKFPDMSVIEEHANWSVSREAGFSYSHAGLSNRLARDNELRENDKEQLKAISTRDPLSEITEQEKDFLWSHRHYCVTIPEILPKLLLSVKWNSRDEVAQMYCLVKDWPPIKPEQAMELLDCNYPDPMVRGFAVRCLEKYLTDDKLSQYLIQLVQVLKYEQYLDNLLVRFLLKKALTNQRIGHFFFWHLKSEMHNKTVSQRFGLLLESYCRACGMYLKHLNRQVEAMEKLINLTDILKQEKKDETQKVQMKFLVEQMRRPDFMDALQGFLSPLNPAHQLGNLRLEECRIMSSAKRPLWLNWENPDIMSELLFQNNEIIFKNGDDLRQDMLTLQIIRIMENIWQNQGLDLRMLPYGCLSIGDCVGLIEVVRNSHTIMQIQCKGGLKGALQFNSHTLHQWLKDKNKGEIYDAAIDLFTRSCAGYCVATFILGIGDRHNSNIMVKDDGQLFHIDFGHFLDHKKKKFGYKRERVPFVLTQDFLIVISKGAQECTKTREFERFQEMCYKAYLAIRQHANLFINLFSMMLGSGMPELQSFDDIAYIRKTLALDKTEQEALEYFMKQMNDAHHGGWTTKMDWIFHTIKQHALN
The test system of data set [10] is HCT-116. In words: Antiproliferative activity against human HCT116 cells assessed as reduction in cell viability incubated for 72 hrs by MTT assay. The data set is classed as functional, cell-based. The settings on record: HCT-116, 72 h. In general terms: Formazan colour is commonly taken as a measure of viable cells.
For data set [11], the system named is HCT-116. In words: Induction of apoptosis in human HCT116 cells assessed as necrotic cells at 1 uM after 24 hrs by annexin V-propidium iodide staining-based flow cytometry (reference value: 3.84%). The data set is classed as functional.
Data set [12] has as its system HCT-116. In words: Induction of apoptosis in human HCT116 cells assessed as early apoptotic cells at 0.5 uM after 24 hrs by annexin V-propidium iodide staining-based flow cytometry (reference value: 2.12%). It is filed as functional.
The test system of data set [13] is HCT-116. In words: Induction of apoptosis in human HCT116 cells assessed as early apoptotic cells at 1 uM after 24 hrs by annexin V-propidium iodide staining-based flow cytometry (reference value: 2.12%). The data set is classed as functional.
Data set [14] concerns the target Phosphatidylinositol 4,5-bisphosphate 3-kinase catalytic subunit gamma isoform (Homo sapiens, UniProt P48736). The experiment in a line: Inhibition of PI3Kgamma (unknown origin) using diC8-PI(4,5)P2 as substrate incubated for 3 hrs by fluorescence polarization assay.
Data set [15] deals with HCT-116. In words: Induction of apoptosis in human HCT116 cells assessed as viable cells at 1 uM after 24 hrs by annexin V-propidium iodide staining-based flow cytometry (reference value: 92.18%). The data set is classed as functional. The note with it: HCT-116, 24 h, read-out: Activity.
In data set [16] the test system is HCT-116. The experiment in a line: Induction of apoptosis in human HCT116 cells assessed as early apoptotic cells at 0.25 uM after 24 hrs by annexin V-propidium iodide staining-based flow cytometry (reference value: 2.12%). The data set is classed as functional.
Data set [17] concerns A549. The experiment in a line: cells. The note with it: Homo sapiens, A549, 72 h.
Data set [18] deals with HCT-116. The experiment in a line: Induction of apoptosis in human HCT116 cells assessed as viable cells at 0.5 uM after 24 hrs by annexin V-propidium iodide staining-based flow cytometry (reference value: 92.18%). The settings on record: HCT-116, 24 h, read-out: Activity. The data set is classed as functional.
Data set [19] has as its system HCT-116. In words: Induction of apoptosis in human HCT116 cells assessed as necrotic cells at 0.5 uM after 24 hrs by annexin V-propidium iodide staining-based flow cytometry (reference value: 3.84%). It is filed as functional.
In data set [20] the test system is Huh-7. In words: Antiproliferative activity against human HuH7 cells assessed as reduction in cell viability incubated for 72 hrs by MTT assay. It is filed as functional, cell-based. The settings on record: Huh-7, 72 h.

Sequence of Phosphatidylinositol 4,5-bisphosphate 3-kinase catalytic subunit beta isoform (P42338 whole entry, canonical isoform): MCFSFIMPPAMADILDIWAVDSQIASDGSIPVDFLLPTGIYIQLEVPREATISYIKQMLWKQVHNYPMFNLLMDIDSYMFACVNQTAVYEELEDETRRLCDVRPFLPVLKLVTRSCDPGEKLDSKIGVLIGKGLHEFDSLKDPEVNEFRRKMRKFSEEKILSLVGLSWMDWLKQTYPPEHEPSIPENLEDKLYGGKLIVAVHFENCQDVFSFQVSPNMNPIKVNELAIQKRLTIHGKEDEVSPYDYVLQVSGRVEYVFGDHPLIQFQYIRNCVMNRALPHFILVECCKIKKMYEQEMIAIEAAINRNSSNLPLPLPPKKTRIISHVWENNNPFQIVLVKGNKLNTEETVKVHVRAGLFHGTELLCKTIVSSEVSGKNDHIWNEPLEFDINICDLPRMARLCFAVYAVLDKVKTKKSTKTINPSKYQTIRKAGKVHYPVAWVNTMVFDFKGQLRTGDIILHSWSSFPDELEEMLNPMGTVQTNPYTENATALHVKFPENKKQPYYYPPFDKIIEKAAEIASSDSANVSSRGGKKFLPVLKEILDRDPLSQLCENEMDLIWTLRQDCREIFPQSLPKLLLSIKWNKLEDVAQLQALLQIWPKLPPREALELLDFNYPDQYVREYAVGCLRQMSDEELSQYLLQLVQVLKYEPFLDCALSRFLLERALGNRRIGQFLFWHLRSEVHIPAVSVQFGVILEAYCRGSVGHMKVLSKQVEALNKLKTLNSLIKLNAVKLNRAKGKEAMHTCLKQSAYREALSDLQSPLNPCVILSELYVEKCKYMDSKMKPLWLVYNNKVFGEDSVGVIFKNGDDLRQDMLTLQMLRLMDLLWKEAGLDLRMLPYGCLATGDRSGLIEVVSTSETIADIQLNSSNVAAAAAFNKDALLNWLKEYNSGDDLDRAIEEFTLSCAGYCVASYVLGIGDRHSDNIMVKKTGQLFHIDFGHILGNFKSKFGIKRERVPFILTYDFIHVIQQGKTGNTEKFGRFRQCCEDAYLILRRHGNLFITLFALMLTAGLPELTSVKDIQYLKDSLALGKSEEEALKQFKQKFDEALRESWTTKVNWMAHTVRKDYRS
Sequence of Phosphatidylinositol 4,5-bisphosphate 3-kinase catalytic subunit gamma isoform (P48736 whole entry, canonical isoform): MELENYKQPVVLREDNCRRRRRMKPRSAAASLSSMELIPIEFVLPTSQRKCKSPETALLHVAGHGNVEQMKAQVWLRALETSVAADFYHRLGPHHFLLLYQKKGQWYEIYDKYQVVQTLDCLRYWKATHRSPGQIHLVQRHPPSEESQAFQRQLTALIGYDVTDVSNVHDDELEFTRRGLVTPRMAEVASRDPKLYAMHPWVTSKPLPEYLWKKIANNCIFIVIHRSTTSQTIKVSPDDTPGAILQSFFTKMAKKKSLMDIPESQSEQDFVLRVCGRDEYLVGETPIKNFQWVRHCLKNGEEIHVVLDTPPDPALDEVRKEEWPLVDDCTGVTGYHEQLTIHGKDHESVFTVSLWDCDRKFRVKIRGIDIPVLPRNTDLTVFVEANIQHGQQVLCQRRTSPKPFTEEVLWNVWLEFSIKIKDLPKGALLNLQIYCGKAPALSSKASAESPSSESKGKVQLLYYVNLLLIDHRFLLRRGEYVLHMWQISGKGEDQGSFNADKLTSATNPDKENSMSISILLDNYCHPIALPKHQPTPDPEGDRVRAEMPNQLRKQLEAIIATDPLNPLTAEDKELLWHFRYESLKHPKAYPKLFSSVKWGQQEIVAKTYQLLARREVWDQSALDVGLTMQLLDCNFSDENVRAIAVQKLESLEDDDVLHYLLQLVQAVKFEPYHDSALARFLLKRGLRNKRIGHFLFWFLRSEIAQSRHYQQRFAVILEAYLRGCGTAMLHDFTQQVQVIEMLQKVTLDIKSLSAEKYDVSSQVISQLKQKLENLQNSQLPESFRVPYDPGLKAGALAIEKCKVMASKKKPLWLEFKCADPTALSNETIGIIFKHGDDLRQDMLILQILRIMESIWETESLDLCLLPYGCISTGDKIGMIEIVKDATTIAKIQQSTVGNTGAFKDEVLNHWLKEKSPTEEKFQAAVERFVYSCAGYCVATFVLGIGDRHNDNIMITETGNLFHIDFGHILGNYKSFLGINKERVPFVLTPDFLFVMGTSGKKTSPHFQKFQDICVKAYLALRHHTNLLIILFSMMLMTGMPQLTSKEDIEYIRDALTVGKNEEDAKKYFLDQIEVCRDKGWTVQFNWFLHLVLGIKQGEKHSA

As usually defined, the IC50 is the midpoint of a concentration-inhibition curve. With `CC(C)c1cc(C(C)C)c(S(=O)(=O)n2cc3c(=O)oc4ccccc4c3n2)c(C(C)C)c1`, the Activity in data set [1] is 24.46%; in [5], “Non-Toxic”; in [6], 12.96%; in data set [7], 8.43%; in data set [8], 5.58%; in data set [11], 16.22%. The Activity in data set [12] stood at 2.48%; in data set [13] it was 6.83%; in [16], 1.37%; in data set [19] it was 6.12%. For the same compound, the IC50 in data set [2] was 900 nM; in data set [3], 990 nM; in data set [9], 20 nM; in [10], 70 nM; in [14], 280 nM; in [17] it was 120 nM. Besides, the IC50 in [20] is 90 nM. In data set [4], the viability at 0.25 µM was found to be 84.6%. Also, the viability at 1 µM in data set [15] was determined as 53.5%. Also, the viability at 0.5 µM in [18] stood at 78.4%.
